In PMC4154066 (Chemical research in toxicology, 2013):
Read-outs that look alike come from different tables or passages of the source.

Legend:
HepG2 cells [1] = assay: Oxygen consumption rate; type: cell-based, Human; conditions: for Relative percentage OCR 30 Sec: HepG2, 30 sec after compound at its MMP IC50; for Relative percentage OCR 30 Sec / Relative percentage OCR 1 h: basal OCR = 100%, mean ± SD; for Relative percentage OCR 1 h: HepG2, 1 h after compound at its MMP IC50
HepG2 cells [2] = conditions: HepG2, 40 h; cited from earlier work
HepG2 cells [3] = assay: cells; type: cell-based, Human; conditions: for Compound potency (IC50) LDH Release 5 h: HepG2, 5 h treatment
[4] = test system: mitochondrial membrane potential in HepG2 cells; assay: qHTS MMP assay, primary screen; type: cell-based, Human; conditions: Homo sapiens
[5] = HepG2, compound at its MMP IC50, 30 sec and 1 h, then FCCP
[6] = HepG2, 1 h treatment, mean ± SD, 3 independent experiments
[7] = mean ± SD, 3 independent experiments
[8] = Homo sapiens, HepG2, 1 h, read-out: Compound potency (IC50) LDH Release 1 h
[9] = Homo sapiens, HepG2, 5 h, read-out: Compound potency (IC50) LDH Release 5 h
[10] = read-out: Compound potency (IC50) LDH Release 1 h, HepG2, 1 h treatment, mean ± SD, 3 independent experiments

| SMILES | Relative percentage OCR 30 Sec (HepG2 cells [1]) | Relative percentage OCR 1 h (HepG2 cells [1]) | other results |
| --- | --- | --- | --- |
| Nc1cccc2c(N)cccc12 [1,5-Naphthalenediamine] | 104.68 ± 1.3% | 115.87 ± 0.7% | – |
| O=C1c2c(O)ccc([N+](=O)[O-])c2C(=O)c2c([N+](=O)[O-])ccc(O)c21 [1,8-Dihydroxy-4,5-dinitroanthraquinone] | 144.03 ± 7.3% | 150.09 ± 1.27% | cytotoxicity at 40 h (HepG2 cells [2]): cytotoxic; Effect on OCR / FCCP-uncoupled OCR (in words) (HepG2 cells [1]; [5]): acted as uncouplers |
| Oc1ccc(Cl)cc1Cc1cc(Cl)ccc1O [2,2'-Methylenebis-(4-chlorophenol)] | 170.42 ± 33.35% | 168.27 ± 1.85% | – |
| Oc1ccc(Cl)cc1Sc1cc(Cl)ccc1O [2,2'-Thiobis(4-chlorophenol)] | 273.19 ± 70.36% | 191.27 ± 0.92% | – |
| Nc1ccc2c(c1)C(=O)c1ccccc1C2=O [2-Aminoanthraquinone] | 97.54 ± 0.63% | 106.44 ± 0.61% | – |
| Oc1cc(Cl)c(Cl)c(Cl)c1 [3,4,5-Trichlorophenol] | 163.21 ± 18.34% | 173.49 ± 1.32% | – |
| O=C=Nc1ccc(Cl)c(Cl)c1 [3,4-Dichlorophenyl isocyanate] | 102.45 ± 10.76% | 236.03 ± 4.84% | – |
| Cc1cc(O)c(C(C)(C)C)cc1Sc1cc(C(C)(C)C)c(O)cc1C [4,4-Thiobis(6-t-butyl-m-cresol)] | 106.32 ± 4% | 127.15 ± 1.52% | Compound potency (IC50) LDH Release 1 h (HepG2 cells [3]; [6]): Inactive; Compound potency (IC50) LDH Release 5 h (HepG2 cells [3]; [7]): Inconclusive |
| CC(C)(c1ccccc1)c1ccc(O)cc1 [4-Cumylphenol] | 111.24 ± 4.51% | 121.31 ± 0.33% | – |
| CC1=C(/C=C/C(C)=C/C=C/C(C)=C/C(=O)Nc2ccc(O)cc2)C(C)(C)CCC1 [4-Hydroxyphenyl retinamide] | 96.31 ± 1.42% | 98.83 ± 0.42% | Effect on OCR / FCCP-uncoupled OCR (in words) (HepG2 cells [1]; [5]): significantly suppressed the FCCP uncoupled rates |
| O=c1cc(-c2ccc(O)cc2)oc2cc(O)cc(O)c12 [Apigenin] | 99.69 ± 1.13% | 107.51 ± 0.16% | cytotoxicity at 40 h (HepG2 cells [2]): the only exception; Effect on OCR / FCCP-uncoupled OCR (in words) (HepG2 cells [1]; [5]): did not affect the OCR or the FCCP-uncoupled OCR |
| O=C1C2CC=CCC2C(=O)N1SC(Cl)(Cl)Cl (stereo not shown) [Captan] | 110.37 ± 7.97% | 128.41 ± 0.77% | – |
| COc1cc(/C=C/C(=O)CC(=O)/C=C/c2ccc(O)c(OC)c2)ccc1O [Curcumin] | 86 ± 3.54% | 94.85 ± 0.67% | Effect on OCR / FCCP-uncoupled OCR (in words) (HepG2 cells [1]; [5]): significantly suppressed the FCCP uncoupled rates |
| CC/C(=C(/CC)c1ccc(O)cc1)c1ccc(O)cc1 [Diethylstilbestrol [DES], Diethylstilbestrol, reference compound] | – | – | Effect on OCR / FCCP-uncoupled OCR (in words) (HepG2 cells [1]): depressed both basal and FCCP uncoupled rates |
| C[C@@H]1CC[C@@]2(OC1)O[C@H]1[C@@H](O)[C@H]3[C@@H]4CC[C@H]5C[C@@H](O[C@@H]6O[C@H](CO)[C@H](O[C@@H]7O[C@H](CO)[C@@H](O)[C@H](O[C@@H]8OC[C@@H](O)[C@H](O)[C@H]8O)[C@H]7O[C@@H]7O[C@H](CO)[C@H](O)[C@H](O[C@@H]8O[C@H](CO)[C@@H](O)[C@H](O)[C@H]8O)[C@H]7O)[C@H](O)[C@H]6O)[C@H](O)C[C@]5(C)[C@H]4CC[C@]3(C)[C@H]1[C@@H]2C [Digitonin] | 57.25 ± 6.4% | 54.89 ± 0.48% | Effect on OCR / FCCP-uncoupled OCR (in words) (HepG2 cells [1]; [5]): depressed both basal and FCCP uncoupled rates; IC50 (HepG2 cells [3]; [8]): 45.1 ± 8.43 µM; IC50 (HepG2 cells [3]; [9]): 45.1 ± 8.43 µM |
| O=C(Nc1ccccc1)Nc1ccccc1 [Diphenylurea] | 97.02 ± 4.18% | 143.97 ± 1.85% | – |
| Cc1cc(O)c2c(c1)C(=O)c1cc(O)cc(O)c1C2=O [Emodin] | 235.59 ± 56.54% | 210.48 ± 1.83% | cytotoxicity at 40 h (HepG2 cells [2]): cytotoxic; Effect on OCR / FCCP-uncoupled OCR (in words) (HepG2 cells [1]; [5]): acted as uncouplers |
| N#CC(C#N)=NNc1ccc(OC(F)(F)F)cc1 [FCCP, Carbonyl cyanide 4-(trifluoromethoxy)phenylhydrazone, reference compound] | – | – | IC50 ([4]; HepG2, 1 h, read-out: mean IC50 of positive control, 1 h): 0.81 ± 0.2 µM; IC50 ([4]; HepG2, 5 h, read-out: mean IC50 of positive control, 5 h): 1.28 ± 0.32 µM |

| SMILES | Relative percentage OCR 30 Sec (HepG2 cells [1]) | Relative percentage OCR 1 h (HepG2 cells [1]) | other results |
| --- | --- | --- | --- |
| CN(C)c1ccc(N=NS(=O)(=O)O)cc1 [Formulated fenaminosulf (Dexon), fenaminosulf] | 102.48 ± 0.9% | 110.45 ± 0.28% | – |
| O=c1c(-c2ccc(O)cc2)coc2cc(O)cc(O)c12 [Genistein (4',5,7-Trihydroxyisoflavone), 4',5,7-Trihydroxyisoflavone] | 90.18 ± 3.05% | 105.21 ± 0.19% | – |
| Oc1c(Cl)cc(Cl)c(Cl)c1Cc1c(O)c(Cl)cc(Cl)c1Cl [Hexachlorophene] | 201.72 ± 51.19% | 175.25 ± 1.35% | – |
| O=c1c(O)c(-c2ccc(O)cc2)oc2cc(O)cc(O)c12 [Kaempferol] | 118.63 ± 4.29% | 138.85 ± 1.28% | Effect on OCR / FCCP-uncoupled OCR (in words) (HepG2 cells [1]; [5]): acted as an uncoupler; Compound potency (IC50) LDH Release 1 h (HepG2 cells [3]; [6]): Inactive; Compound potency (IC50) LDH Release 5 h (HepG2 cells [3]; [7]): Inconclusive |
| O=C1C2(Cl)C3(Cl)C4(Cl)C(Cl)(Cl)C5(Cl)C3(Cl)C1(Cl)C5(Cl)C24Cl (stereo not shown) [Kepone] | 139.53 ± 5.8% | 140.71 ± 0.96% | IC50 (HepG2 cells [3]; [8]): 49.1 ± 12.3 µM; IC50 (HepG2 cells [3]; [9]): 58.4 ± 3.95 µM |
| c1ccc(Nc2ccc3ccccc3c2)cc1 [N-Phenyl-2-naphthylamine] | 103.45 ± 2.35% | 120.42 ± 0.94% | – |
| CC(=O)Oc1ccccc1C(=O)Nc1ncc([N+](=O)[O-])s1 [Nitazoxanide, reference compound] | 277.15 ± 15.64% | 199.34 ± 2.37% | – |
| COC(=O)Nc1cccc(OC(=O)Nc2cccc(C)c2)c1 [Phenmedipham] | 105.47 ± 2.71% | 130.87 ± 1.18% | Compound potency (IC50) LDH Release 1 h (HepG2 cells [3]; [6]): Inactive; Potency for cytotoxicity (LDH) compared with MMP decrease, 5 h (HepG2 cells [3]; HepG2, 5 h): more potent for cytotoxicity than for MMP disruption; Compound potency (IC50) LDH Release 5 h (HepG2 cells [3]; [7]): Inconclusive |
| CC(=O)[O][Hg][c]1ccccc1 [Phenyl mercuric acetate] | 67.6 ± 5.55% | 51.54 ± 0.26% | Effect on OCR / FCCP-uncoupled OCR (in words) (HepG2 cells [1]; [5]): depressed both basal and FCCP uncoupled rates; IC50 (HepG2 cells [3]; [10]): 68.1 ± 4.44 µM |
| Oc1ccc(/C=C/c2cc(O)cc(O)c2)cc1 [Resveratrol] | 100.5 ± 0.73% | 110.92 ± 0.36% | – |
| Cc1cc2nc3c(=O)[nH]c(=O)nc-3n(C[C@H](O)[C@H](O)[C@H](O)CO)c2cc1C [Riboflavin] | 103.69 ± 0.37% | 115.15 ± 0.4% | – |
| C[C@H]1CCCC(=O)CCC/C=C/c2cc(O)cc(O)c2C(=O)O1 [Zearalenone] | 77.68 ± 2.39% | 109.62 ± 0.57% | Effect on OCR / FCCP-uncoupled OCR (in words) (HepG2 cells [1]; [5]): depressed both basal and FCCP uncoupled rates |
| Clc1ccc(C(c2ccccc2Cl)C(Cl)Cl)cc1 (stereo not shown) [o,p'-DDD (Mitotane), 1,1-dichloro-2-(o-chlorophenyl)-2-(p-chlorophenyl) ethane, reference compound] | 102.84 ± 1.36% | 114.22 ± 0.42% | – |
| Oc1ccc(Cl)cc1Cc1ccccc1 [o-Benzyl-p-chlorophenol] | 123.51 ± 12.67% | 126.12 ± 0.47% | – |
| CCCCCCCCCc1ccc(O)cc1 [p -n -Nonylphenol] | 116.61 ± 6.28% | 131.32 ± 0.61% | – |
| Nc1ccc(O)cc1 [p-Aminophenol] | 100.52 ± 5.81% | 158.18 ± 3.31% | – |
| CCCCCCCC[N+](CCCCCCCC)(CCCCCCCC)CCCCCCCC.[Br-] [tetra-N-Octylammonium bromide] | 122.56 ± 40.61% | 215.53 ± 1.14% | IC50 (HepG2 cells [3]; [10]): 35.4 ± 12.6 µM |
